Here are results for 13 compounds from patent publication US11149031B2, “Substituted N-(3-fluoropropyl)-pyrrolidine compounds, processes for their preparation and therapeutic uses thereof” (SANOFI, priority 2016, dated 2021).

Test [1] concerns MCF7 cells expressing mutant estrogen receptor Asp 538 Gly. Nature of the test: Test B: cell proliferation/viability assay (CellTiter-Glo) on MCF7 Asp 538 Gly mutant. The class given is cell-based. The conditions noted are these: Homo sapiens, MCF7, 168 h, MCF7 cells expressing ER Asp 538 Gly mutant, 7 days of compound exposure, read-out: proliferation MCF7 D538G IC50. Put shortly: (§1)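 Mutant lines are MCF7 transfected with ER mutants and selected for estradiol-independent growth. Cells in phenol red-free MEM with 5% charcoal-stripped FBS received 9-point 1:5 dilutions (3-0.000001 μM) for 7 days; CellTiter-Glo luminescence, % viability relative to untreated after background subtraction.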
Background: In ATP-based viability assays light output follows the ATP content of the culture.

Test [2] addresses His6-ERα298-554 WT (ERα ligand-binding domain) (Homo sapiens (Human), UniProt P03372). Kind of test: Test A: biochemical antagonist activity, LanthaScreen TR-FRET ERα coactivator assay, WT. The conditions noted are these: read-out: Antagonism WT IC50. Put shortly:
(§2)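 His6-ERα LBD (0.5 nM) with 0.5 nM Tb-anti-His6 antibody, 250 nM PGC1a peptide and 3 nM (or 10 nM) estradiol in 100 mM potassium phosphate pH 7.4 with 5 mM DTT, incubated overnight at room temperature with compound.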
(In general: Time-resolved FRET reads energy transfer from a long-lived donor to a nearby acceptor.)

For test [3], the system named is MCF7 cells expressing mutant estrogen receptor Tyr 537 Ser. Nature of the test: Test B: cell proliferation/viability assay (CellTiter-Glo) on MCF7 Tyr 537 Ser mutant. The class given is cell-based. The conditions noted are these: Homo sapiens, MCF7, 168 h, MCF7 cells expressing ER Tyr 537 Ser mutant, 7 days of compound exposure, read-out: proliferation MCF7 Y537S IC50. The gist of the method:
as §1

The target of test [4] is His6-ERα298-554 Y537S mutant (ERα ligand-binding domain) (Homo sapiens (Human), UniProt P03372, Y537S). Nature of the test: Test A: biochemical antagonist activity, LanthaScreen TR-FRET ERα coactivator assay, Y537S mutant. The conditions noted are these: read-out: Antagonism Y537S IC50. Put shortly:
as §2

In test [5] the test system is MCF7 cells (breast tumor cells) WT. Nature of the test: Test B: cell proliferation/viability assay (CellTiter-Glo) on MCF7 WT. Type of test: cell-based. The conditions noted are these: Homo sapiens, MCF7, 168 h, 7 days of compound exposure. The gist of the method:
as §1

In another test the target is ERα in MCF7 cells (Homo sapiens (Human), UniProt P03372). Kind of test: Test C: estrogen receptor degradation activity, ERα in cell western assay in MCF7 cells. The class given is cell-based. The conditions noted are these: for DC50: 4 hours post compound addition, ERα in cell western, read-out: Degradation IC50; for % Degradation at 3 μM: 4 hours, relative to fulvestrant. Put shortly: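 MCF7 cells in phenol-red-free medium with 5% charcoal-stripped FBS received compound (9-point 1:5, 3-0.000018 μM) for 4 h, then were fixed. ERα immunostained (Alexa 488) and normalised to DNA (Syto-64), read as integrated fluorescence on an Acumen scanner.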

For test [6], the target named is His6-ERα298-554 D538G mutant (ERα ligand-binding domain) (Homo sapiens (Human), UniProt P03372, D538G). Nature of the test: Test A: biochemical antagonist activity, LanthaScreen TR-FRET ERα coactivator assay, D538G mutant. The conditions noted are these: read-out: Antagonism D538G IC50. Put shortly:
as §2

[7] abbreviates: asterisk (*): protocol using 10 nM estradiol.

Like-named read-outs stand apart in the source and are kept apart here.

Chain of ERα in MCF7 cells (P03372 whole entry): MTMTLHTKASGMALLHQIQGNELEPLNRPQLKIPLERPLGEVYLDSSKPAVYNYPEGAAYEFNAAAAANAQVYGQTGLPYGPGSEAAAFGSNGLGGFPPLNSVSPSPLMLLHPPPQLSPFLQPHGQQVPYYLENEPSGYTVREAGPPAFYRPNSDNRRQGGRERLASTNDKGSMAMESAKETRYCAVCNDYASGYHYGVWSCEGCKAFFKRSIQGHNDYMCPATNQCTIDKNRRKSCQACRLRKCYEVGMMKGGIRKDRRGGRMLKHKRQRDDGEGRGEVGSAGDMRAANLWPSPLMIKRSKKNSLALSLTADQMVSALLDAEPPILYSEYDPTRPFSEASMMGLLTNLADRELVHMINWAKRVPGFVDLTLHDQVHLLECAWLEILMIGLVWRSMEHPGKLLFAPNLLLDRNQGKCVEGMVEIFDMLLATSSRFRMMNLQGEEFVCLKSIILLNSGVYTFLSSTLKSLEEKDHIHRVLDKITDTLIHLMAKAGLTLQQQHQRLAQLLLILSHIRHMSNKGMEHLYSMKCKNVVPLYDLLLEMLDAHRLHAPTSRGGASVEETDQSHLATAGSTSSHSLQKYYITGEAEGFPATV
Chain of His6-ERα298-554 D538G mutant (ERα ligand-binding domain) (P03372 298-554 D538G): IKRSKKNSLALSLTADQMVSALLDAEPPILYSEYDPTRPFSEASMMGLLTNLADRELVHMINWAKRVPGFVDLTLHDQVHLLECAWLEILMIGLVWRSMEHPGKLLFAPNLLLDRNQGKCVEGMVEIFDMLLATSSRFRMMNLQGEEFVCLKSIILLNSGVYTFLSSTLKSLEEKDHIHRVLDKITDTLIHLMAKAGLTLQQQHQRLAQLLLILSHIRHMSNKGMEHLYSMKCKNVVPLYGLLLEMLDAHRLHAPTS
Chain of His6-ERα298-554 Y537S mutant (ERα ligand-binding domain) (P03372 298-554 Y537S): as the sequence (P03372 298-554 D538G) above, with Y240S, G241D counted along it
Chain of His6-ERα298-554 WT (ERα ligand-binding domain) (P03372 298-554): as the sequence (P03372 298-554 D538G) above, with G241D counted along it

Consider `COc1c(C(=O)O)cccc1C1=C(c2ccc(O[C@H]3CCN(CCCF)C3)cc2)c2ccc(O)cc2OCC1` [Example 148, 3-[5-[4-[(3S)-1-(3-fluoropropyl)pyrrolidin-3-yl]oxyphenyl]-8-hydroxy-2,3-dihydro-1-benzoxepin-4-yl]-2-methoxy-benzoic acid], for which the IC50 in test [1] was 314 nM; in test [2] (setting [7]), more than 4000 nM; in test [3], more than 999 nM; in test [4] (setting [7]), more than 4000 nM; in test [5], 222 nM; in test [6] (setting [7]) it was more than 4000 nM. For the same compound, the DC50 on ERα in MCF7 cells came out at 448 nM. For the same compound, the “% Degradation at 3 μM” value at ERα in MCF7 cells is listed as 77%.
Turning to `Cc1ccc(C2=C(c3ccc(O[C@H]4CCN(CCCF)C4)cc3)c3cc(F)c(O)cc3OCC2)c(F)c1` [Example 138, 7-fluoro-4-(2-fluoro-4-methyl-phenyl)-5-[4-[(3S)-1-(3-fluoropropyl)pyrrolidin-3-yl]oxyphenyl]-2,3-dihydro-1-benzoxepin-8-ol], the IC50 in test [1] came to 7 nM; in test [2] (protocol with 3 nM estradiol), 18 nM; in test [3] it was 51 nM; in test [4] (protocol with 3 nM estradiol), 253 nM; in test [5] it was 2 nM; in test [6] (protocol with 3 nM estradiol), 360 nM. The DC50 on ERα in MCF7 cells is 0.5 nM. At ERα in MCF7 cells, the “% Degradation at 3 μM” value turned out to be 89%.
Turning to `Oc1ccc2c(c1)SCC(c1ccc(C(F)F)cc1F)=C2c1ccc(O[C@H]2CCN(CCCF)C2)cc1` [Example 62, 3-[4-(difluoromethyl)-2-fluoro-phenyl]-4-[4-[(3S)-1-(3-fluoropropyl)pyrrolidin-3-yl]oxyphenyl]-2H-thiochromen-7-ol], the IC50 in test [1] was found to be 0.2 nM; in test [2] (setting [7]) it was 27 nM; in test [3], 6 nM; in test [4] (setting [7]) it was 271 nM; in test [5], 0.4 nM; in test [6] (setting [7]) it was 523 nM. On ERα in MCF7 cells, the DC50 turned out to be 0.2 nM. The “% Degradation at 3 μM” value on ERα in MCF7 cells amounted to 80%.
Regarding `CCOc1ccc(C2=C(c3ccc(O[C@H]4CCN(CCCF)C4)nc3)c3ccc(O)c(F)c3CCC2)c(F)n1` [Example 252, 6-(6-ethoxy-2-fluoro-3-pyridyl)-1-fluoro-5-[6-[(3S)-1-(3-fluoropropyl)pyrrolidin-3-yl]oxy-3-pyridyl]-8,9-dihydro-7H-benzo[7]annulen-2-ol], the IC50 in test [1] came out at 0.4 nM; in test [2] (setting [7]), 0.7 nM; in test [3] it was 9 nM; in test [4] (setting [7]), 9 nM; in test [5], 0.6 nM; in test [6] (setting [7]), 8 nM. For the same compound, the DC50 at ERα in MCF7 cells is 0.2 nM. In addition, the “% Degradation at 3 μM” value at ERα in MCF7 cells is 86%.
On to `CCOc1ccc(C2=C(c3ccc(O[C@H]4CCN(CCCF)C4)nc3)c3ccc(O)cc3SCC2)c(F)n1` [Example 208, 4-(6-ethoxy-2-fluoro-3-pyridyl)-5-[6-[(3S)-1-(3-fluoropropyl)pyrrolidin-3-yl]oxy-3-pyridyl]-2,3-dihydro-1-benzothiepin-8-ol], for which the IC50 in test [1] was determined as 0.7 nM; in test [2] (setting [7]), 0.6 nM; in test [3], 4 nM; in test [4] (setting [7]) it was 5 nM; in test [5] it was 0.2 nM; in test [6] (setting [7]), 7 nM. Besides, the DC50 at ERα in MCF7 cells amounted to 0.4 nM. Also, at ERα in MCF7 cells, the “% Degradation at 3 μM” value came out at 86%.
Regarding `Oc1ccc2c(c1)SCC(c1ccc(O)nc1F)=C2c1ccc(O[C@H]2CCN(CCCF)C2)cc1` [Example 46, 6-fluoro-5-[4-[4-[(3S)-1-(3-fluoropropyl)pyrrolidin-3-yl]oxyphenyl]-7-hydroxy-2H-thiochromen-3-yl]pyridin-2-ol], the IC50 in test [1] came out at 0.5 nM; in test [2] (setting [7]), 5 nM; in test [3], 2 nM; in test [4] (setting [7]), 59 nM; in test [5], 0.1 nM; in test [6] (setting [7]) it was 101 nM. Also, the DC50 on ERα in MCF7 cells is 0.2 nM. For the same compound, the “% Degradation at 3 μM” value at ERα in MCF7 cells stood at 83%.
For the compound `Oc1ccc2c(c1)C(c1ccc(O[C@H]3CCN(CCCF)C3)cc1)=C(c1ccc(OC(F)(F)F)cc1Cl)CC2` [Example 7, 7-[2-chloro-4-(trifluoromethoxy)phenyl]-8-[4-[(3S)-1-(3-fluoropropyl)pyrrolidin-3-yl]oxyphenyl]-5,6-dihydronaphthalen-2-ol], the IC50 in test [1] is 18 nM; in test [2] (setting [7]) it was 1470 nM; in test [3], more than 999 nM; in test [4] (setting [7]), more than 4000 nM; in test [5], 13 nM; in test [6] (setting [7]) it was more than 4000 nM. Moreover, at ERα in MCF7 cells, the DC50 worked out at 22 nM. Further, the “% Degradation at 3 μM” value on ERα in MCF7 cells was 82%.
`Cc1ccc(C2=C(c3ccc(O[C@H]4CCN(CCCF)C4)cc3)c3ccc(O)cc3SC2)c(F)c1` [Example 16, 3-(2-fluoro-4-methyl-phenyl)-4-[4-[(3S)-1-(3-fluoropropyl)pyrrolidin-3-yl]oxyphenyl]-2H-thiochromen-7-ol]: the IC50 is 2 nM in test [1]; 4 nM in test [2] (protocol with 3 nM estradiol); 10 nM in test [3]; 6 nM in test [4] (protocol with 3 nM estradiol); 0.9 nM in test [5]; 16 nM in test [6] (protocol with 3 nM estradiol). For the same compound, at ERα in MCF7 cells, the DC50 was found to be 1 nM. In addition, at ERα in MCF7 cells, the “% Degradation at 3 μM” value was determined as 90%.
On to `Cc1ccc(C2=C(c3ccc(O[C@H]4CCN(CCCF)C4)cc3)c3cc(Cl)c(O)cc3OCC2)c(F)c1` [Example 145, 7-chloro-4-(2-fluoro-4-methyl-phenyl)-5-[4-[(3S)-1-(3-fluoropropyl)pyrrolidin-3-yl]oxyphenyl]-2,3-dihydro-1-benzoxepin-8-ol], for which the IC50 was 17 nM in test [1]; 256 nM in test [2] (protocol with 3 nM estradiol); 124 nM in test [3]; 3270 nM in test [4] (protocol with 3 nM estradiol); 9 nM in test [5]; 4000 nM in test [6] (protocol with 3 nM estradiol). The DC50 at ERα in MCF7 cells amounted to 0.5 nM. The “% Degradation at 3 μM” value on ERα in MCF7 cells stood at 82%.
Regarding `CCOc1ccc(C2=C(c3cnc(O[C@H]4CCN(CCCF)C4)nc3)c3ccc(O)cc3CCC2)c(F)n1` [Example 251, 6-(6-ethoxy-2-fluoro-3-pyridyl)-5-[2-[(3S)-1-(3-fluoropropyl)pyrrolidin-3-yl]oxypyrimidin-5-yl]-8,9-dihydro-7H-benzo[7]annulen-2-ol], the IC50 is 0.5 nM in test [1]; 4 nM in test [2] (setting [7]); 5 nM in test [3]; 57 nM in test [4] (setting [7]); 0.4 nM in test [5]; 104 nM in test [6] (setting [7]). On ERα in MCF7 cells, the DC50 was determined as 0.5 nM. Further, the “% Degradation at 3 μM” value on ERα in MCF7 cells was found to be 89%.
For `Cc1ccc(C2=C(c3ccc(O[C@H]4CCN(CCCF)C4)nc3)c3ccc(O)cc3CCC2)c(F)c1` [Example 237, 6-(2-fluoro-4-methyl-phenyl)-5-[6-[(3S)-1-(3-fluoropropyl)pyrrolidin-3-yl]oxy-3-pyridyl]-8,9-dihydro-7H-benzo[7]annulen-2-ol], the IC50 in test [1] is 0.7 nM; in test [2] (setting [7]), 0.6 nM; in test [3], 5 nM; in test [4] (setting [7]), 5 nM; in test [5] it was 0.3 nM; in test [6] (setting [7]), 7 nM. In addition, on ERα in MCF7 cells, the DC50 turned out to be 0.2 nM. For the same compound, the “% Degradation at 3 μM” value on ERα in MCF7 cells is recorded as 92%.
With `CC1(C)Cc2cc(C3=C(c4ccc(O[C@H]5CCN(CCCF)C5)nc4)c4ccc(O)cc4CCC3)ccc2N1` [Example 242, 6-(2,2-dimethylindolin-5-yl)-5-[6-[(3S)-1-(3-fluoropropyl)pyrrolidin-3-yl]oxy-3-pyridyl]-8,9-dihydro-7H-benzo[7]annulen-2-ol], the IC50 was 2 nM in test [1]; 1 nM in test [2] (setting [7]); 11 nM in test [3]; 7 nM in test [4] (setting [7]); 0.7 nM in test [5]; 9 nM in test [6] (setting [7]). Further, the DC50 on ERα in MCF7 cells turned out to be 0.8 nM. For the same compound, the “% Degradation at 3 μM” value at ERα in MCF7 cells was determined as 83%.
Regarding `CCOc1cc(F)c(C2=C(c3ccc(O[C@H]4CCN(CCCF)C4)cc3)c3ccc(O)cc3SCC2)cc1F` [Example 220, 4-(4-ethoxy-2,5-difluoro-phenyl)-5-[4-[(3S)-1-(3-fluoropropyl)pyrrolidin-3-yl]oxyphenyl]-2,3-dihydro-1-benzothiepin-8-ol], the IC50 in test [1] came out at 0.5 nM; in test [2] (setting [7]) it was 8 nM; in test [3], 5 nM; in test [4] (setting [7]), 84 nM; in test [5] it was 0.4 nM; in test [6] (setting [7]), 164 nM. Also, the DC50 on ERα in MCF7 cells amounted to 0.2 nM. For the same compound, the “% Degradation at 3 μM” value at ERα in MCF7 cells came to 89%.
